Data: patent US11878013B2, “Isoquinoline derivative, preparing method thereof, and pharmaceutical composition for preventing or treating autophagy related diseases containing the same as an active ingredient” (Korea Research Institute of Chemical Technology, priority 2021, dated 2024)
Where two headings read alike, the source gives them in different places.

Experiments:
NO production = NO production in LPS-treated Raw 264.7 macrophages (Griess reagent); assay type: cell-based, mouse; conditions: 1 ug/ml LPS, 24 hours, Raw 264.7 cells; test concentration not given
Method: In order to confirm the effect of the compound of Example 1 of the present invention on NO production in Raw 264.7 mouse macrophages in which inflammatory response was induced by LPS, an experiment was performed as follows.
(§1) Raw 264.7 mouse macrophages were aliquoted in a 96-well plate at the density of 1×10^5 cells/well and stabilized in a 37° C., 5% CO2 incubator for 24 hours. The Raw 264.7 cells were treated with the compound of Example 1 by concentration. After 1 hour, the cells were treated with 1 ug/ml of LPS and cultured for 24 hours. For the measurement of NO production, 40 mg/ml of Griess reagent was prepared and it was mixed with the culture supernatant at the same ratio. The mixture was reacted at room temperature for 15 minutes, and absorbance was measured at 540 nm. Based on the results obtained therefrom, the cell viability and NO production rate were expressed as percentages in terms of LPS.

[1] = test system: Raw 264.7 mouse macrophages; assay: Cell viability of LPS-treated Raw 264.7 macrophages; assay type: cell-based
Method: as §1

zebrafish [2] = assay: Whitening effect: melanin synthesis / melanocyte formation in zebrafish; assay type: in vivo; conditions: 5 μM, treated 10 hours after fertilization, read at 32 hours after fertilization; PTU 200 μM as control
Source text: When observing the regeneration of melanin pigment, after inhibiting the formation of melanin pigment, it can be investigated by limiting it to the melanocyte generation pathway, and it is easy to observe the melanin synthesized in the initial stage of development. Therefore, zebrafish is more useful for the study of melanin pigment changes compared to other animal models (Logan D W, Burn S F, Jackson I J. (2006) Regulation of pigmentation in zebrafish melanophores. Pigment Cell Res. 2006 June; 19(3):206-13.).
Particularly, zebrafish fertilized eggs 10 hours after fertilization were placed in a 24-well plate (10 eggs/well), and 1 ml of egg water was added to each well of the plate. The compound of Example 1 was added to each well at the concentrations of 0.1 μM and 1 μM, so that the final volume of each well was 2 ml. Then, each 24-well plate was wrapped in foil to block light, and then incubated in a 28° C. incubator for 22 hours. At 32 hours after fertilization, in order to photograph the formation of black melanocytes, the chorion of the developing embryo was peeled off using a forcep (Fine Science Tools). After anesthetizing the developing embryo with Tricaine (4 g/L), the embryo was photographed on 3% methyl cellulose. As the equipment for photographing the developing embryo, a LEICA MZ10F fluorescence microscope, a LEICA DFC425 camera, and Leica Application Suite software (v4.5) were used. In all the experimental procedures, egg water sterilized after dissolving 60 mg/L of sea salt (Sigma-Aldrich, S9883) in tertiary distilled water was used as a solution for culturing the developing embryo. As a control group, a solvent control group (0.4% DMSO) and phenylthiourea (200 μM PTU), known as a tyrosinase inhibitor, were used (FIG. 6A).
In the same manner, experiments were performed with the compound of Comparative Example 1 at the concentrations of 0.5 μM, 1 μM, and 5 μM, and the results are shown in FIG. 6B.
On the other hand, in order to confirm the ability of the compound of the present invention to inhibit the melanin synthesis of the already generated melanocytes, the following experiment was performed with juvenile fish 60 hours after fertilization. Particularly, juvenile fish 60 hours after fertilization were placed in a 24-well plate (10/well), and 1 ml of egg water was added to each well of the plate. The compound of Example 1 was added to each well at the concentrations of 10 μM and 20 μM, so that the final volume of each well was 2 ml. Then, each 24-well plate was wrapped in foil to block light, and then incubated in a 28° C. incubator for 12 hours. In order to photograph the formation of black melanocytes, the developing embryo was anesthetized with Tricaine (4 g/L), and then the embryo was photographed on 3% methyl cellulose. […]

melanogenesis = conditions: Bioorganic & Medicinal Chemistry Letters 30 (2020) 127201; cited from earlier work
artificial skin tissue = assay: Skin toxicity test on artificial skin (MTT); assay type: cell-based; conditions: 5% SDS control group
Method: In order to evaluate the skin toxicity that may be induced upon skin contact of the compound of Example 1 of the present invention, the following experiment was performed using the artificial skin prepared with a structure similar to the skin of a living body.
Particularly, the experiment was performed according to OECD Guideline for the Testing of Chemicals No. 439, OECD (2010) and the method recommended by the manufacturer (Tegoscience).
First, the artificial skin cultured in agarose medium was transferred to a 12-well cell culture plate, to which culture medium was added, followed by culture in a humidified 37° C. 5% CO2 incubator for one day. The medium on the artificial skin culture surface was eliminated, and 90 μl of the compound of Example 1 of the present invention diluted with PBS was evenly applied to the skin surface, followed by incubation at room temperature for 15 minutes. The cell surface was washed twice with 10 ml of PBS, and a fresh culture medium was added, followed by incubation in a humidified 37° C. 5% CO2 incubator for 42 hours. In order to measure the viability of the skin, the artificial skin was transferred to a 12-well plate containing 2 ml of MTT solution (0.3 mg/ml), followed by culture for 3 hours. The stained artificial skin tissue was taken and transferred to a tube containing 500 μl of 0.04 N-isopropanol, and then incubated with shaking for 4 hours to decolorize. The solution was centrifuged at 13,000 rpm for 5 minutes, 100 μl of the supernatant was transferred to each well of a 96-well plate, and absorbance was measured at 570 nm.

[3] = test system: artificial corneal tissue; assay: Ocular toxicity test on artificial cornea (MTT); assay type: cell-based; conditions: 10% acetic acid control group
Method: In order to evaluate the ocular toxicity that may be induced upon ocular exposure of the compound of Example 1 of the present invention, the following experiment was performed using the cultured artificial cornea.
The artificial corneal tissue cultured in agarose medium was transferred to a 12-well cell culture plate, to which culture medium was added, followed by culture in a humidified 37° C. 5% CO2 incubator for one day. The medium on the artificial cornea culture surface was eliminated, and 30 μl of the compound of Example 1 of the present invention diluted with PBS was evenly applied to the cornea surface, followed by incubation at room temperature for 30 minutes. The cell surface was washed twice with 10 ml of PBS, and a fresh culture medium was added, followed by incubation in a humidified 37° C. 5% CO2 incubator for 30 minutes. In order to measure the viability of the cornea, the artificial cornea was transferred to a 12-well plate containing 2 ml of MTT solution (1 mg/ml), followed by culture for 3 hours. The stained artificial corneal tissue was taken and transferred to a tube containing 1.5 ml of isopropanol, and then incubated with shaking to decolorize. The solution was centrifuged at 13,000 rpm for 5 minutes, 100 μl of the supernatant was transferred to each well of a 96-well plate, and absorbance was measured at 570 nm.

zebrafish [4] = assay: Fatty liver inhibitory effect in tamoxifen-treated zebrafish juvenile fish (LipidGreen2 staining); assay type: in vivo; conditions: 5 μM tamoxifen alone, 22 hours (FIG. 8 top)
Method: In order to evaluate the inhibitory efficacy of the novel isoquinoline derivative of the present invention on fatty liver, an experiment was performed as follows using LipidGreen2 staining reagent capable of staining lipid droplets.
Particularly, the zebrafish used in this Experimental Example were juvenile fish 5 days after fertilization. Healthy juvenile fish were placed in a 24-well plate (10/well), and 1 ml of egg water was added to each well of the plate. As a negative control that could not regulate fatty liver, DMSO diluted at 0.4% was exposed to juvenile fish, and tamoxifen (Sigma-Aldrich, T5648) diluted at 5 μM was exposed to juvenile fish to control […] fatty liver. In order to investigate the fatty liver inhibitory efficacy of the compound of Example 1 of the present invention, the compound (0.5 μM, 1 μM and 5 μM) was mixed with 5 μM tamoxifen and exposed to juvenile fish (final volume of each well: 2 ml). The 24-well plate containing the compound was wrapped in foil to block light, and then incubated in a 28° C. incubator for 22 hours. The plate was washed with egg water 3 times for 5 minutes to remove the compound from each well. For fat-specific staining, LipidGreen2 diluted at 5 μM was exposed to juvenile fish for 30 minutes, and then washed 3 times with egg water for 5 minutes. To evaluate the fatty liver of zebrafish juvenile fish, the developing embryo was anesthetized with Tricaine (4 g/L), and then photographed on 3% methyl cellulose. As the equipment for photographing the developing embryo, a LEICA MZ10F fluorescence microscope, a LEICA DFC425 camera, and Leica Application Suite software (v4.5) were used. For the fluorescence wavelength, a GFP Plants filter set (Excitation 470/40 nm, Emission 525/50 nm) was used. To quantify the liver area and the degree of fat staining of juvenile fish on the image, the area and the fluorescence intensity of the liver part of each image were quantified using ImageJ 1.50i software (National Institutes of Health, USA) and converted into heatmap images.

[5] = LPS-treated Raw 264.7 cells, 24 hours, test concentration not given

| Molecule | NO production (% of control) (NO production) | Cell viability (% of control) [1, 5] | also measured |
| --- | --- | --- | --- |
| 1-((4-Fluorophenyl)Thio) Isoquinoline [Comparative Example 1, reference compound] | 70 % of control |  | Cell viability (% of control) [1]: 95 % of control |
| Fc1ccc(Sc2nccc3ccccc23)cc1 [Comparative Example 1, 1-((4-Fluorophenyl)Thio) Isoquinoline, reference compound] |  |  | synthesis of melanin (zebrafish [2]): level similar to that of the PTU-treated group; anti-melanogenic effect (melanogenesis): anti-melanogenic effect |
| O=S(=O)(c1ccc(F)cc1)c1nccc2ccccc12 [Comparative Example 2, 1-((4-Fluorophenyl) Sulfonyl)Isoquinoline, reference compound] | 65 % of control | 73 % of control |  |
| [O-][S+](c1ccc(F)cc1)c1ccnc2ccccc12 (centres unmarked) [Example 2, 4-((4-Fluorophenyl)Sulfinyl)Quinoline] | 26 % of control | 100 % of control |  |
| [O-][S+](c1ccc(F)cc1F)c1nccc2ccccc12 (centres unmarked) [Example 3, 1-((2,4-Difluorophenyl)Sulfinyl)Isoquinoline] | 30 % of control | 103 % of control |  |
| [O-][S+](c1ccc(Cl)cc1)c1nccc2ccccc12 (centres unmarked) [Example 4, 1-((4-Chlorophenyl)Sulfinyl)Isoquinoline] | 40 % of control | 96 % of control |  |
| [O-][S+](c1ccc(C(F)(F)F)cc1)c1nccc2ccccc12 (centres unmarked) [Example 5, 1-((4-(Trifluoromethyl)Phenyl)Sulfinyl) Isoquinoline] | 25 % of control | 101 % of control |  |
| CCCCCCCCCCCCOS(=O)(=O)[O-].[Na+] [SDS, reference compound] |  |  | MTT color development of artificial skin (artificial skin tissue): significant decrease of the MTT color development |
| CC(=O)O [acetic acid, reference compound] |  |  | MTT color development of artificial cornea [3]: significant decrease of the MTT color development |
| CC/C(=C(\c1ccccc1)c1ccc(OCCN(C)C)cc1)c1ccccc1 [tamoxifen, reference compound] |  |  | liver area (zebrafish [4]): maintained at the liver area level of normal juvenile fish |
